Reference: US8722035B2, “Formulations including digestive enzymes, polysorbate-based surfactants and probiotics” (Master Supplements, Inc., priority 2007, dated 2014)

How the values were obtained:
[1] = tested on: Lactobacillus acidophilus LA-1; assay: Growth of Lactobacillus acidophilus LA-1 in broth, plated on MRS agar (Examples 1 and 4); assay type: cell-based
Method: • I) Lactobacillus acidophilus LA-1 was inoculated at one (1) million CFU/ml into 500 ml of sterile broth medium conta Ming 2% casein, 2% corn starch, 0.1% calcium carbonate, 0.1% magnesium carbonate, and 0.05% yeast extract (Difco); a medium in which it is difficult to achieve significant Lactobacillus growth but which contains typical nutrients found in human diets. The inoculated broth (contained in 1 L Erlenmeyer flasks) was incubated at 37 C for 24 hours and then plated on MRS auar to determine CFU/ml. Result (average of triplicate samples): 12 million CFU/ml. • II) The test in (I) was repeated where the medium also contained 0.1% Tween-80. Result: 14 million CFU/ml. • III) The test in (I) was repeated where the medium was pre-treated with digestive enzymes for 24 hours prior to sterilization at 121 C for 20 minutes at 15 psi. The pre-treatment involved adding 250 mg of a lactogenic enzyme mixture containing papain (10,000 TU), bromelain (50 GDU), alpha-amylase (1,000 SKB) and glucoamylase (2.5 AG). Result: 87 million CFU/ml • IV) The test in (III) was repeated where 0.1% Tween-80 (as DP35) was added during the enzyme pre-treatment procedure. […]

[2] = tested on: Lactobacillus rhamnosus HN001; assay: Growth of Lactobacillus rhamnosus HN001 in broth, plated on MRS agar (Example 2); assay type: cell-based; conditions: procedures of Example 1, untreated Test I 6 million CFU/ml
Method: • I) Lactobacillus acidophilus LA-1 was inoculated at one (1) million CFU/ml into 500 ml of sterile broth medium conta Ming 2% casein, 2% corn starch, 0.1% calcium carbonate, 0.1% magnesium carbonate, and 0.05% yeast extract (Difco); a medium in which it is difficult to achieve significant Lactobacillus growth but which contains typical nutrients found in human diets. The inoculated broth (contained in 1 L Erlenmeyer flasks) was incubated at 37 C for 24 hours and then plated on MRS auar to determine CFU/ml. Result (average of triplicate samples): 12 million CFU/ml. • II) The test in (I) was repeated where the medium also contained 0.1% Tween-80. Result: 14 million CFU/ml. • III) The test in (I) was repeated where the medium was pre-treated with digestive enzymes for 24 hours prior to sterilization at 121 C for 20 minutes at 15 psi. The pre-treatment involved adding 250 mg of a lactogenic enzyme mixture containing papain (10,000 TU), bromelain (50 GDU), alpha-amylase (1,000 SKB) and glucoamylase (2.5 AG). Result: 87 million CFU/ml • IV) The test in (III) was repeated where 0.1% Tween-80 (as DP35) was added during the enzyme pre-treatment procedure.
• The procedures of Example 1 were repeated with Lactobacillus rhamnosus HN001 substituted for Lactobacillus acidophilus LA-1. The results are as follows: Test I): 6 million CFU/ml. Test II): 7.5 million CFU/ml. Test III): 62 million CFU/ml.

[3] = tested on: Lactobacillus paracasei F-19; assay: Growth of Lactobacillus paracasei F-19 in broth, plated on MRS agar (Example 3); assay type: cell-based; conditions: procedures of Example 1, untreated Test I 14 million CFU/ml
[4] = tested on: Bifidobacterium lactis BL04; assay: Anaerobic growth of Bifidobacterium lactis BL04 in broth, plated on MRS agar plus L-cysteine HCl (Example 5); assay type: cell-based; conditions: inoculum 2 million CFU/ml, casein/rye/asparagus/barley broth, anaerobic 37 C, 24 hours, 0.025% Tween-80, 250 mg enzyme mixture, 24 h pre-treatment, untreated Test I 8 million CFU/ml
Method: • I) Bifidobacterium lactis BL04 was inoculated at two (2) million CFU/ml into 500 ml of sterile broth medium containing 2% casein, 1% rye flour, 1% asparagus powder (ground freeze-dried asparagus), 1% barley flour, 0.1% calcium carbonate, 0.1% magnesium carbonate, and 0.05% yeast extract (Difco); a medium in which it is generally difficult to achieve significant Bifidobacteria growth but contains typical nutrients fbund in human diets. The inoculated broth (contained in 1 L Erlenmeyer flasks) was incubated anaerobically at 37 C for 24 hours and then plated on MRS agar plus L-cysteine HCl, to determine CFU/ml (plates were incubated anaerobically), Result (average of triplicate samples): 8 million CFU/ml. • II) The test in I) was repeated where the medium also contained 0.025% Tween-80. Result: 3 million CFU/ml. • III) The test in I) was repeated where the medium was pre-treated with digestive enzymes for 24 hours prior to sterilization at 121 C for 20 minutes at 15 psi. The pre-treatment involved adding 250 mg of a bifidogenic enzyme mixture containing cellulase-TL (1,000 CU), hemicellulase (1,000 HCU), beta-glucanase (50 BGU), papain (10,000 TU) and bromelain (50 GDU). Result 74 million CFU/ml. • IV) The test in III) was repeated where 0.025% Tween-80 was added during the enzyme pre-treatment procedure.

[5] = tested on: Bifidobacterium bifidum BB-12; assay: Growth of Bifidobacterium bifidum BB-12 in broth (Example 6); assay type: cell-based; conditions: untreated Test I 11 million CFU/ml
[6] = hydrophile-lipophile balance, designated from 1 to 20; cited from earlier work

Row | Compound | viable count of L. acidophilus LA-1 after incubation ([1]; Example 1, inoculum 1 million CFU/ml, casein/corn starch broth, 37 C, 24 hours, 0.1% Tween-80, 250 mg enzyme mixture, 24 h pre-treatment, untreated Test I 12 million CFU/ml) | viable count of L. rhamnosus HN001 after incubation [2] | viable count of L. paracasei F-19 after incubation [3] | viable count of Bifidobacterium lactis BL04 after incubation [4] | viable count of Bifidobacterium bifidum BB-12 after incubation [5] | HLB [6] | viable count of L. acidophilus LA-1 after incubation ([1]; Example 4, procedures of Example 1 with different enzyme mixture and Tween-60 in place of Tween-80, untreated Test I 10 million CFU/ml)
1 | CCCCCCCC/C=C\CCCCCCCC(=O)OCCOCC(OCCO)C1OCC(OCCO)C1OCCO (stereo not shown) [Tween-80, polyoxyethylene sorbitan monooleate] | 14 million CFU/ml | 7.5 million CFU/ml | 19 million CFU/ml | 3 million CFU/ml | 5 million CFU/ml | 15.0 | –
2 | polyoxyethylene sorbitan monostearate [Tween-60] | – | – | – | – | – | – | 9 million CFU/ml
